{"source": "patent US9980927B2", "about": "“Use of tapentadol for inhibiting and/or treating depression and anxiety” (Gruenenthal GmbH, priority 2011, dated 2018)", "test_system": "patients with inadequately managed, severe chronic low back pain with or without a neuropathic pain component", "test": "Hospital Anxiety and Depression Scale (HADS) anxiety score; open-label phase IIIb trial, tapentadol prolonged release 50-250 mg bid for up to 12 weeks", "assay_type": "in vivo, human patients", "details": "for HADS anxiety score, course: Baseline to Week 12", "description": "As used herein, the “anxiety score” is a value determining the degree of the […]. The scale of anxiety scores covers the range from 0 to 21, wherein the degree of the anxiety is high in case of high values and low in case of low values. In a group of tested subjects, typically the mean or mediate values of anxiety scores are determined and referred to. The mean value is the sum of all anxiety scores divided by the number of subjects. The mediate value is the middle anxiety score in the set of determined scores. Preferably, the “anxiety score” is defined as in the experimental section.\nA subgroup suffering from neuropathic pain due to lumbar radiculopathy was also investigated.\nThis was a multicenter, multinational, open-label, effectiveness phase IIIb trial to evaluate effectiveness and safety of tapentadol prolonged release treatment in patients with inadequately managed, severe chronic low back pain with or without a neuropathic pain component. Patients taking WHO Step II analgesics discontinued those analgesics before starting study medication; patients taking Step I analgesics and/or centrally acting co-analgesics continued on the same dose. […] All patients received tapentadol prolonged release (50-250 mg bid) for up to 12 weeks (5-week titration period and a 7-week maintenance period). Tapentadol immediate release (IR) 50 mg (twice a day, hours apart) was permitted (combined total daily dose of tapentadol prolonged release and tapentadol IR, 500 mg/day). The primary efficacy endpoint was the change from Baseline to Week 6 (when tapentadol prolonged release doses were stable) in average pain intensity on the 11-point NRS-3 using the last observation carried forward (LOCF) for imputing missing scores. The painDETECT questionnaire was used to evaluate the likelihood of a neuropathic pain component of low back pain; patients were classified as painDETECT “negative,” “unclear,” or “positive.” The population of patients classified as painDETECT negative was limited to approximately 30% of the total population.\nIn the painDETECT positive trial population the “diagnosis of lumbar radiculopathy” was evaluated which was defined per study protocol according following criteria: • typical dermatomal pain (radiating beyond the knee towards the foot, pain evoked by stretching within distribution of the ischiadic/femoral nerve) • signs of root dysfunction: • such as sensory impairment, motor symptoms from compression of lumbar nerve root (L4, L5, S1). • and/or absent or diminished quadriceps femoris or triceps surae reflexes. • and/or quantitative sensory testing (QST) deficit and pain distribution present in the same dermatomal area.\nAll subjects completed Short Form-36 (SF-36) and EuroQol-5 Dimension (EQ-5D) questionnaires and the Hospital Anxiety and Depression Scale (HADS). The Patient Global Impression of Change (PGIC) and Clinical global impression of change (CGIC) were also used as secondary endpoints. For both tests, patients completed the statement, “since I began trial treatment, I would rate my overall condition as,” using 7 possible responses (“very much worse” to “very much improved”). Adverse events were recorded throughout the trial.\nIn the following • (i) N is the number of subjects of the specified diagnosis group, • (ii) n is the number of subjects with data available, • (iii) “Mean” is the mean score of the subjects, i.e. the sum of all scores is divided by the number of subjects, • (iv) SD is the standard deviation, • (v) “Median” is the median score of the subjects, i.e. the middle score in the set of scores, • (vi) “Range” is the range of scores of the subjects, i.e. the range defined by the lowest and the highest score of the set of scores. First, the depression scores are presented. The total number of subjects in the clinical study: N=175", "key": {"[1]": {"details": "Visit 1, defined neuropathic pain N=85"}, "[2]": {"details": "Visit 1, positive diagnosis of lumbar radiculopathy-neuropathic pain subset N=44"}, "[3]": {"details": "Visit 1, presumed neuropathic pain component N=41"}, "[4]": {"details": "Visit 1, presumed or defined neuropathic pain component N=126"}, "[5]": {"details": "Visit 1, subjects with nociceptive pain N=49"}, "[6]": {"details": "Visit 5, defined neuropathic pain N=85"}, "[7]": {"details": "Visit 5, positive diagnosis of lumbar radiculopathy-neuropathic pain subset N=44"}, "[8]": {"details": "Visit 5, presumed neuropathic pain component N=41"}, "[9]": {"details": "Visit 5, presumed or defined neuropathic pain component N=126"}, "[10]": {"details": "Visit 5, subjects with nociceptive pain N=49"}, "[11]": {"details": "Visit 6, defined neuropathic pain N=85"}, "[12]": {"details": "Visit 6, positive diagnosis of lumbar radiculopathy-neuropathic pain subset N=44"}, "[13]": {"details": "Visit 6, presumed neuropathic pain component N=41"}, "[14]": {"details": "Visit 6, presumed or defined neuropathic"}, "[15]": {"details": "Visit 6, presumed or defined neuropathic pain component N=126"}, "[16]": {"details": "Visit 6, subjects with nociceptive pain N=49"}, "[17]": {"details": "Visit 7, defined neuropathic pain N=85"}, "[18]": {"details": "Visit 7, positive diagnosis of lumbar radiculopathy-neuropathic pain subset N=44"}, "[19]": {"details": "Visit 7, presumed neuropathic pain component N=41"}, "[20]": {"details": "Visit 7, presumed or defined neuropathic pain component N=126"}, "[21]": {"details": "Visit 7, subjects with nociceptive pain N=49"}, "[22]": {"details": "Visit 8, defined neuropathic pain N=85"}}}
{"molecule": "CC[C@@H](c1cccc(O)c1)[C@@H](C)CN(C)C", "note": "[tapentadol, (−)-(1R,2R)-3-(3-dimethylamino-1-ethyl-2-methyl-propyl)-phenol]", "values": [{"measurement": "HADS anxiety score, course", "setting": "painDETECT negative", "value": "not significantly"}, {"measurement": "HADS anxiety score, course", "setting": "painDETECT unclear/positive, P<0.0001 at Visit 12", "value": "improved steadily"}, {"measurement": "HADS anxiety score, course", "setting": "positive diagnosis of lumbar radiculopathy-neuropathic pain subset, p=0.0105 at Visit 12", "value": "improved steadily"}, {"measurement": "Anxiety score Mean (SD)", "setting": "[1]", "value": "8.3 (4.01)"}, {"measurement": "Anxiety score Median", "setting": "[1]", "value": 8.0}, {"measurement": "Anxiety score Mean (SD)", "setting": "[2]", "value": "8.7 (3.64)"}, {"measurement": "Anxiety score Median", "setting": "[2]", "value": 9.0}, {"measurement": "Anxiety score Mean (SD)", "setting": "[3]", "value": "7.9 (4.52)"}, {"measurement": "Anxiety score Median", "setting": "[3]", "value": 7.0}, {"measurement": "Anxiety score Mean (SD)", "setting": "[4]", "value": "8.2 (4.16)"}, {"measurement": "Anxiety score Median", "setting": "[4]", "value": 8.0}, {"measurement": "Anxiety score Mean (SD)", "setting": "[5]", "value": "5.9 (4.19)"}, {"measurement": "Anxiety score Median", "setting": "[5]", "value": 6.0}, {"measurement": "Anxiety score Mean (SD)", "setting": "Visit 1, total subjects N=175", "value": "7.6 (4.28)"}, {"measurement": "Anxiety score Median", "setting": "Visit 1, total subjects N=175", "value": 7.0}, {"measurement": "Anxiety score Mean (SD)", "setting": "[6]", "value": "7.2 (3.89)"}, {"measurement": "Anxiety score Median", "setting": "[6]", "value": 8.0}, {"measurement": "Anxiety score Mean (SD)", "setting": "[7]", "value": "6.8 (3.39)"}, {"measurement": "Anxiety score Median", "setting": "[7]", "value": 7.5}, {"measurement": "Anxiety score Mean (SD)", "setting": "[8]", "value": "6.7 (4.22)"}, {"measurement": "Anxiety score Median", "setting": "[8]", "value": 7.0}, {"measurement": "Anxiety score Mean (SD)", "setting": "[9]", "value": "7.0 (3.98)"}, {"measurement": "Anxiety score Median", "setting": "[9]", "value": 7.0}, {"measurement": "Anxiety score Mean (SD)", "setting": "[10]", "value": "6.1 (3.80)"}, {"measurement": "Anxiety score Median", "setting": "[10]", "value": 5.0}, {"measurement": "Anxiety score Mean (SD)", "setting": "Visit 5, total subjects N=175", "value": "6.8 (3.94)"}, {"measurement": "Anxiety score Median", "setting": "Visit 5, total subjects N=175", "value": 7.0}, {"measurement": "Anxiety score change from baseline Mean (SD)", "setting": "Visit 6", "value": "−1.6 (3.58)"}, {"measurement": "Anxiety score change from baseline Median", "setting": "Visit 6", "value": "−1.0"}, {"measurement": "Anxiety score change from baseline Mean (SD)", "setting": "Visit 6, defined neuropathic", "value": "−1.4 (3.44)"}, {"measurement": "Anxiety score change from baseline Median", "setting": "Visit 6, defined neuropathic", "value": "−1.0"}, {"measurement": "Anxiety score Mean (SD)", "setting": "[11]", "value": "6.9 (3.66)"}, {"measurement": "Anxiety score Median", "setting": "[11]", "value": 6.0}, {"measurement": "Anxiety score change from baseline Mean (SD)", "setting": "Visit 6, lumbar radiculopathy", "value": "−1.4 (3.88)"}, {"measurement": "Anxiety score change from baseline Median", "setting": "Visit 6, lumbar radiculopathy", "value": "−0.5"}, {"measurement": "Anxiety score change from baseline Mean (SD)", "setting": "Visit 6, nociceptive", "value": "−0.3 (2.93)"}, {"measurement": "Anxiety score change from baseline Median", "setting": "Visit 6, nociceptive", "value": 0.0}, {"measurement": "Anxiety score Mean (SD)", "setting": "[12]", "value": "7.1 (3.46)"}, {"measurement": "Anxiety score Median", "setting": "[12]", "value": 7.5}, {"measurement": "Anxiety score Mean (SD)", "setting": "[13]", "value": "6.9 (3.99)"}, {"measurement": "Anxiety score Median", "setting": "[13]", "value": 6.0}, {"measurement": "Anxiety score change from baseline Mean (SD)", "setting": "[14]", "value": "−1.5 (3.47)"}, {"measurement": "Anxiety score change from baseline Median", "setting": "[14]", "value": "−1.0"}, {"measurement": "Anxiety score Mean (SD)", "setting": "[15]", "value": "6.9 (3.75)"}, {"measurement": "Anxiety score Median", "setting": "[15]", "value": 6.0}, {"measurement": "Anxiety score Mean (SD)", "setting": "[16]", "value": "5.8 (4.68)"}, {"measurement": "Anxiety score Median", "setting": "[16]", "value": 5.0}, {"measurement": "Anxiety score change from baseline Mean (SD)", "setting": "Visit 6, total", "value": "−1.2 (3.36)"}, {"measurement": "Anxiety score change from baseline Median", "setting": "Visit 6, total", "value": "−1.0"}, {"measurement": "Anxiety score Mean (SD)", "setting": "Visit 6, total subjects N=175", "value": "6.6 (4.02)"}, {"measurement": "Anxiety score Median", "setting": "Visit 6, total subjects N=175", "value": 6.0}, {"measurement": "Anxiety score Mean (SD)", "setting": "[17]", "value": "6.1 (3.91)"}, {"measurement": "Anxiety score Median", "setting": "[17]", "value": 6.0}, {"measurement": "Anxiety score Mean (SD)", "setting": "[18]", "value": "6.1 (3.85)"}, {"measurement": "Anxiety score Median", "setting": "[18]", "value": 6.0}, {"measurement": "Anxiety score Mean (SD)", "setting": "[19]", "value": "5.9 (4.08)"}, {"measurement": "Anxiety score Median", "setting": "[19]", "value": 5.5}, {"measurement": "Anxiety score Mean (SD)", "setting": "[20]", "value": "6.0 (3.95)"}, {"measurement": "Anxiety score Median", "setting": "[20]", "value": 6.0}, {"measurement": "Anxiety score Mean (SD)", "setting": "[21]", "value": "5.6 (4.15)"}, {"measurement": "Anxiety score Median", "setting": "[21]", "value": 5.0}, {"measurement": "Anxiety score Mean (SD)", "setting": "Visit 7, total subjects N=175", "value": "5.9 (3.99)"}, {"measurement": "Anxiety score Median", "setting": "Visit 7, total subjects N=175", "value": 6.0}, {"measurement": "Anxiety score change from baseline Mean (SD)", "setting": "Visit 8", "value": "−2.9 (3.11)"}, {"measurement": "Anxiety score change from baseline Median", "setting": "Visit 8", "value": "−2.0"}, {"measurement": "Anxiety score change from baseline Mean (SD)", "setting": "Visit 8, defined neuropathic", "value": "−2.2 (3.77)"}, {"measurement": "Anxiety score change from baseline Median", "setting": "Visit 8, defined neuropathic", "value": "−2.0"}, {"measurement": "Anxiety score Mean (SD)", "setting": "[22]", "value": "6.0 (3.66)"}, {"measurement": "Anxiety score Median", "setting": "[22]", "value": 5.0}, {"measurement": "Anxiety score change from baseline Mean (SD)", "setting": "Visit 8, lumbar radiculopathy", "value": "−2.4 (4.23)"}, {"measurement": "Anxiety score change from baseline Median", "setting": "Visit 8, lumbar radiculopathy", "value": "−1.0"}, {"measurement": "Anxiety score change from baseline Mean (SD)", "setting": "Visit 8, nociceptive", "value": "−0.7 (3.88)"}, {"measurement": "Anxiety score change from baseline Median", "setting": "Visit 8, nociceptive", "value": "−1.0"}, {"measurement": "Anxiety score Mean (SD)", "setting": "Visit 8, positive diagnosis of lumbar radiculopathy-neuropathic pain subset N=44", "value": "5.9 (3.74)"}]}
